Test results reported in US12642791B2, “Inhibitors of lysyl oxidases” (UNIVERSITY OF SOUTH CAROLINA, priority 2021, dated 2026).

Columns and labels:
[1] = system: MDA-MB-231 cells; assay: Doxorubicin chemosensitization in 3D collagen I culture; type: cell-based, human; settings: collagen I-embedded cells, combination with doxorubicin
Protocol: (§1) Collagen solution was prepared at a concentration of 0.5-1 mg/ml from the rat tail collagen I (Corning, USA) with a neutralization step including the addition of 1N NaOH solution. Cells were trypsinazed and resuspended in collagen:matrigel mix (1:1). 8×10^3 cells were seeded into 96-well or μ-Slide 8-well glass bottom chambers. After 1 hour of incubation at room temperature, media was added on top of the solidified collagen:matrigel mix. Drug treatments were done 12 hours after cell seeding.
(§2) Cells were embedded in type I collagen:matrigel mix as described above. Cells were grown in the presence of doxorubicin or LOX inhibitors alone or combination of LOX inhibitors with doxorubicin for 48 hours. After the treatment, cell viability was measured by using 3D Cell Titer Glo (Promega, USA) kit.

[2] = system: HCC1143; assay: as above; type: cell-based, human; settings: collagen I-embedded cells, combination with doxorubicin
Protocol: as §1, §2

[3] = system: MCF12A; assay: Viability assay in normal cells; type: cell-based, human; settings: normal breast cell line
Excerpt: FIG. 32. 6232 derivatives, 6403 and 6415, show no cytotoxicity in normal cells. Viability assay in normal breast cell line, MCF12A, human foreskin fibroblast cell line, HFF and human endothelial cell line, HUVEC treated with 6403 or 6415.

[4] = biological target: T1, LOXL2 (Homo sapiens, UniProt Q9Y4K0); assay: Lysyl oxidase activity assay with recombinant LOXL2 protein; type: biochemical; parameters: purchased Abcam, USA; settings: for inhibition of recombinant LOXL2: 10 μM compound
T1 sequence (Q9Y4K0 26-774): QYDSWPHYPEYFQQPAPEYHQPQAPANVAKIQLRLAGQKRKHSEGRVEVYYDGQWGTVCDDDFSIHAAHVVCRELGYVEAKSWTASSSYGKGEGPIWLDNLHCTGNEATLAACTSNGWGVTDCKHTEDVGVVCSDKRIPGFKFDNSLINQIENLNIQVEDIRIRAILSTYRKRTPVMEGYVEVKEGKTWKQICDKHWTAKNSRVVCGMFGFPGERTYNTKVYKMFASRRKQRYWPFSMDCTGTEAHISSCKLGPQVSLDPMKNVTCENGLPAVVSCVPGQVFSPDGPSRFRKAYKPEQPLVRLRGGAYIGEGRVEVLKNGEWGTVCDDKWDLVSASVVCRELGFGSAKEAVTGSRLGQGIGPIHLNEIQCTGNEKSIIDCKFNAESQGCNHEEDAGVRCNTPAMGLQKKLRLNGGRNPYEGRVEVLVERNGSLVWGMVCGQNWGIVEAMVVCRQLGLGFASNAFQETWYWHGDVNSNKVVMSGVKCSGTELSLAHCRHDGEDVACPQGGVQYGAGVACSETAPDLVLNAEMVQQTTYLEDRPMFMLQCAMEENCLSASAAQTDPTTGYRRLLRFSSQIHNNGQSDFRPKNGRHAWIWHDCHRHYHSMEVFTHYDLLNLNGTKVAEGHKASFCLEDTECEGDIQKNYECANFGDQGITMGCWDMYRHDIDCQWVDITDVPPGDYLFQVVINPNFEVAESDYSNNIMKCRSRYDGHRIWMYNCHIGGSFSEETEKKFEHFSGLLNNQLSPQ
Protocol: For in vitro lysyl oxidase activity (for recombinant proteins), Lysyl Oxidase Activity kit (Biovision, USA) was used according to manufacturer's instructions. Briefly, 1 μg of LOX (Novus, USA), 0.2 μg of LOXL1 (Abcam, USA) and 0.1 μg of LOXL2 (Abcam, USA) were incubated with the reagent mix in the presence of inhibitors or vehicle. Lysyl oxidase activity of the wells was measured in multimode reader (every 30 sec, total 2.5 hours) in […] mode.

[5] = system: TM01278 PDX organoids; assay: PDX-derived TNBC organoids, combination with doxorubicin; type: cell-based, human; settings: combination with doxorubicin (50 nM) vs single agents, 9 days
Protocol: FIG. 36. Combination of 6403 and 6415 with doxorubicin reduced the growth of the TNBC organoids. A. Representative images of TM01278 PDX organoids at day 0 and day 9 after treatment with doxorubicin (50 nM) and 6403 and 6415 treatments, alone or in combination. B. Quantification of organoid diameter and viability upon combination therapy for 9 days.
TNBC organoids were established from a fresh surgical tissue by cutting the tumor into small pieces and incubating in collagenase A solution with ROCK inhibitor on a shaker at 37° C. for 30 minutes. The collagenase activity was inhibited by adding FBS, and pipetting was done to ensure the formation of almost a single cell solution. After several washes with PBS, the cell pellet was dissolved in matrigel. Breast organoid media containing ROCK and GSK inhibitors was added after the Matrigel solidified. See, Sachs, N. et al. A Living Biobank of Breast Cancer Organoids Captures Disease Heterogeneity. Cell 172, 373-386 e310, doi:10.1016/j.cell.2017.11.010 (2018). For drug testing studies, organoids were disrupted to single cells by digesting at 37° C. for 30 mins with TrypLE (A1217701, Gibco, NY, USA) in the presence of 10 μM Rock inhibitor (s1049, Selleckchem, TX, USA). Organoids were plated into wells of 96 well plate (20.000 cells/well) on a collagen-coated surface with media containing 2% Matrigel (356252, Corning, NY, USA). Drugs were added 72 hours after plating. Cells were grown in the presence of drug or vehicle for 9 days, and photos were taken from each well to show the organoid size. Organoid viability was measured by using 3D Cell Titer Glo (Promega, USA) kit.

[6] = In vivo toxicity testing; parameters: species or system BALB/c mice
Protocol: FIG. 41. In vivo testing of 6403 with respect to PK and toxicity. A. Summary of PK parameters of 6403 given orally with 50 mg/kg, n=3. B. H&E staining of organs of BALB/c mice treated daily with 50 or 200 mg/kg of 6403 for one week. C. Body weight of mice treated with vehicle or 25, 50, 75, 100 or 200 mg/kg of 6403 for 5 days. D. Cell-free enzymatic MAO-A and MAO-B assay.

[7] = system: ACHN ccRCC xenografts; assay: Kidney cancer xenograft model; type: in vivo, BALB/c nude mice; settings: 50 mg/kg, PO, daily
Protocol: FIG. 42. Efficacy of 6403 as a single agent in ccRC xenografts. Tumor volume (A), % body weight change (B) and blood count (C) of 6403-treated (50 mg/kg, PO, daily) ACHN xenografts. μg=microgram. LOX expression in ACHN cells is provided by an inset next to the graph in A.
For kidney xenografts, 4×10^6 ACHN cells were mixed with 1:1 DMEM and matrigel and injected into the flank of the BALB/c nude mice. Mouse weight and tumor volumes were measured every second day using calipers. When tumor sizes reach 100 mm^3, mice were randomly distributed into vehicle and 6403 treatment group. Mice were treated daily by oral gavage with vehicle v (50% PEG400, 1% Tween 80 in acetate buffer pH=4) or 50 mg/kg of 6403.

| counts of major blood cells [7] | SMILES | doxorubicin sensitization [1] | doxorubicin sensitization [2] | cell viability (cytotoxicity in normal cells) [3] | inhibition of recombinant LOXL2 [4] | inhibition of recombinant LOXL2 activity ([4]; 5 and 10 uM) | organoid size [5] | organoid viability [5] | blood cell counts ([6]; 200 mg/kg vs vehicle) | organ damage (H&E staining of organs) ([6]; 50 or 200 mg/kg daily for one week) | body weight ([6]; different doses administered daily (25-200 mg/kg, 5 days)) | body weight [7] | tumor growth ([7]; single agent) |
| --- | --- | --- | --- | --- | --- | --- | --- | --- | --- | --- | --- | --- | --- |
| – | Cc1nc(N)sc1-c1csc(N(C)c2ccc(O)cc2)n1 [compound 6415, 4-[[4-(2-amino-4-methyl-thiazol-5-yl)thiazol-2-yl]-methyl-amino]phenol] | led to doxorubicin sensitization | led to doxorubicin sensitization | no significant change in cell viability | inhibits both LOX and LOXL2 recombinant proteins | inhibited the activity of LOX and LOXL2 recombinant proteins | significantly decreased organoid size | significantly decreased | – | – | – | – | – |
| without impacting | CC(=O)Nc1ccc(Nc2nc(-c3sc(N)nc3C)cs2)cc1 [compound 6403, N-[4-[[4-(2-amino-4-methyl-thiazol-5-yl)thiazol-2-yl]amino]phenyl]acetamide] | led to doxorubicin sensitization | led to doxorubicin sensitization | no significant change in cell viability | – | – | significantly decreased organoid size | significantly decreased | No significant effect | did not lead to any observable organ damage | No significant effect | without impacting | successfully reduced the tumor growth |
| – | Cc1nc(N)sc1-c1csc(Nc2ccc([N+](=O)[O-])cc2)n1 [compound 6232, 4-methyl-5-[2-(4-nitroanilino)thiazol-4-yl]thiazol-2-amine] | – | – | – | moderately inhibit | – | – | – | – | – | – | – | – |
